Results: PubChem BioAssay AID330 (DTP/NCI, 2004)
“And” between values parts separate entries of the source, which are not always exact repeats. Equal values may be shown once. Inconclusive results and toxic doses are left out. The calls were made as follows: active = survival T/C of 150% or more; inactive = T/C below 125% in these data.

Test system: P388 leukemia ip, CD2F1 mice, survival T/C
Test: NCI In Vivo Anticancer Drug Screen. Data for tumor model P388 Leukemia (intraperitoneal) in CD2F1 (CDF1) mice
Details: endpoint: median survival time, higher = longer survival
Summary of the method: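 Mice carrying the transplanted tumor received test compound or vehicle. Survival was recorded in each group, and the value is the treated-group measurement divided by that of the vehicle-treated control group.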

[1] = dose: 60.0 mg/kg/injection, schedule: Q01DX005 (ip), vehicle: saline with Tween-80
[2] = dose: 120.0 mg/kg/injection, schedule: Q01DX005 (ip), vehicle: saline with Tween-80
[3] = dose: 240.0 mg/kg/injection, schedule: Q01DX005 (ip), vehicle: saline with Tween-80
[4] = dose: 60.0 mg/kg/injection, schedule: Q01DX005 (ip), vehicle: Klucel (hydroxypropylcellulose) (HPC)
[5] = dose: 120.0 mg/kg/injection, schedule: Q01DX005 (ip), vehicle: Klucel (hydroxypropylcellulose) (HPC)
[6] = dose: 240.0 mg/kg/injection, schedule: Q01DX005 (ip), vehicle: Klucel (hydroxypropylcellulose) (HPC)
[7] = dose: 50.0 mg/kg/injection, schedule: Q01DX009 (ip), vehicle: Klucel (hydroxypropylcellulose) (HPC)
[8] = dose: 100.0 mg/kg/injection, schedule: Q01DX009 (ip), vehicle: Klucel (hydroxypropylcellulose) (HPC)
[9] = dose: 200.0 mg/kg/injection, schedule: Q01DX009 (ip), vehicle: Klucel (hydroxypropylcellulose) (HPC)
[10] = dose: 100.0 mg/kg/injection, schedule: Q01DX009 (ip), vehicle: saline with Tween-80
[11] = dose: 200.0 mg/kg/injection, schedule: Q01DX009 (ip), vehicle: saline with Tween-80
[12] = dose: 50.0 mg/kg/injection, schedule: Q01DX005 (ip), vehicle: Klucel (hydroxypropylcellulose) (HPC)
[13] = dose: 100.0 mg/kg/injection, schedule: Q01DX005 (ip), vehicle: Klucel (hydroxypropylcellulose) (HPC)
[14] = dose: 200.0 mg/kg/injection, schedule: Q01DX005 (ip), vehicle: Klucel (hydroxypropylcellulose) (HPC)
[15] = dose: 50.0 mg/kg/injection, schedule: Q01DX009 (ip), vehicle: saline with Tween-80
[16] = dose: 100.0 mg/kg/injection, schedule: Q01DX009 (ip), vehicle: saline
[17] = dose: 200.0 mg/kg/injection, schedule: Q01DX009 (ip), vehicle: saline
[18] = dose: 50.0 mg/kg/injection, schedule: Q01DX005 (ip), vehicle: saline with Tween-80
[19] = dose: 100.0 mg/kg/injection, schedule: Q01DX005 (ip), vehicle: saline with Tween-80
[20] = dose: 12.5 mg/kg/injection, schedule: Q01DX009 (ip), vehicle: saline
[21] = dose: 25.0 mg/kg/injection, schedule: Q01DX009 (ip), vehicle: saline
[22] = dose: 100.0 mg/kg/injection, schedule: Q04DX002 (ip), vehicle: Klucel (hydroxypropylcellulose) (HPC)
[23] = dose: 200.0 mg/kg/injection, schedule: Q04DX002 (ip), vehicle: Klucel (hydroxypropylcellulose) (HPC)
[24] = dose: 400.0 mg/kg/injection, schedule: Q04DX002 (ip), vehicle: Klucel (hydroxypropylcellulose) (HPC)

Measured: T/C

CCC[N+]1=C/c2ccccc2OC(=O)/C=C\1[O-]
inactive: [1] 101 % of control | [2] 99 % of control | [3] 100 % of control

O=[N+]([O-])c1ccccc1S(=O)(=O)N(CCCCCN(S(=O)(=O)c1ccccc1[N+](=O)[O-])S(=O)(=O)c1ccccc1[N+](=O)[O-])S(=O)(=O)c1ccccc1[N+](=O)[O-]
inactive: [4] 89 % of control | [5] 87 % of control | [6] 87 % of control

CCOC(=O)c1ccccc1SC(C[N+](=O)[O-])c1ccccc1 (stereo unspecified)
inactive: [7] 105 % of control | [8] 110 % of control | [9] 110 % of control

CCCn1c(=S)[nH]c2ccccc2c1=O
inactive: [10] 95 % of control | dose: 100.0 mg/kg/injection, schedule: Q04DX003 (ip), vehicle: saline with Tween-80 100 % of control | [11] 90 % of control | dose: 200.0 mg/kg/injection, schedule: Q04DX003 (ip), vehicle: saline with Tween-80 91 % of control | dose: 400.0 mg/kg/injection, schedule: Q01DX009 (ip), vehicle: saline with Tween-80 100 % of control | dose: 400.0 mg/kg/injection, schedule: Q04DX003 (ip), vehicle: saline with Tween-80 91 % of control

CC(N)C(=O)NC(C)C(=O)NC(C)C(=O)O (stereo unspecified)
inactive: [12] 104 % of control | [13] 106 % of control | [14] 101 % of control

COc1ccc(NC(=O)Nc2ccc(NC(C)=O)cc2)c(OC)c1
inactive: dose: 15.0 mg/kg/injection, schedule: Q01DX005 (ip), vehicle: saline with Tween-80 93 % of control | dose: 30.0 mg/kg/injection, schedule: Q01DX005 (ip), vehicle: saline with Tween-80 92 % of control | [1] 86 % of control | [3] 88 % of control

COc1ccc2ccc(=O)oc2c1C1=C(C)C(=O)OC1
inactive: dose: 2.0 mg/kg/injection, schedule: Q01DX009 (ip), vehicle: Klucel (hydroxypropylcellulose) (HPC) 108 % of control | dose: 4.0 mg/kg/injection, schedule: Q01DX009 (ip), vehicle: Klucel (hydroxypropylcellulose) (HPC) 100 % of control | dose: 8.0 mg/kg/injection, schedule: Q01DX009 (ip), vehicle: Klucel (hydroxypropylcellulose) (HPC) 98 % of control | dose: 16.0 mg/kg/injection, schedule: Q01DX009 (ip), vehicle: Klucel (hydroxypropylcellulose) (HPC) 108 % of control

C[CH2][Ge]([CH2]C)[O][Ge]([CH2]C)[CH2]C.c1cc[c]([Ge]([c]2ccccc2)[c]2ccccc2)cc1.c1cc[c]([Ge]([c]2ccccc2)[c]2ccccc2)cc1
inactive: [1] 88 % of control | [2] 98 % of control | [3] 98 % of control

C[CH2][Pb]([CH2]C)([CH2]C)[N]1C(=O)c2ccccc2C1=O
inactive: dose: 1.56 mg/kg/injection, schedule: Q01DX009 (ip), vehicle: Klucel (hydroxypropylcellulose) (HPC) 110 % of control | dose: 3.12 mg/kg/injection, schedule: Q01DX009 (ip), vehicle: Klucel (hydroxypropylcellulose) (HPC) 118 % of control

O=C(CNC(=O)NCc1ccco1)N/N=C/c1ccccc1O
inactive: [15] 89 % of control | [10] 96 % of control

Cc1ccc2nc(CN(CCN(Cc3nc4ccc(C)cc4[nH]3)Cc3nc4ccc(C)cc4[nH]3)Cc3nc4ccc(C)cc4[nH]3)[nH]c2c1
inactive: dose: 0.38 mg/kg/injection, schedule: Q01DX005 (ip), vehicle: saline with Tween-80 94 % of control | dose: 0.75 mg/kg/injection, schedule: Q01DX005 (ip), vehicle: saline with Tween-80 97 % of control | dose: 1.5 mg/kg/injection, schedule: Q01DX005 (ip), vehicle: saline with Tween-80 109 % of control | dose: 3.0 mg/kg/injection, schedule: Q01DX005 (ip), vehicle: saline with Tween-80 106 % of control | dose: 3.12 mg/kg/injection, schedule: Q01DX005 (ip), vehicle: saline with Tween-80 113 % of control

NC(Cc1ccc(OC2c3ccccc3-c3ccccc32)cc1)C(=O)O (stereo unspecified)
inactive: dose: 50.0 mg/kg/injection, schedule: Q01DX009 (ip), vehicle: saline 100 % of control | [16] 91 % of control | [17] 87 % of control

COc1cc(C(NC(N)=O)c2cc3c(cc2O)OCO3)cc(OC)c1O (stereo unspecified)
inactive: dose: 60.0 mg/kg/injection, schedule: Q01DX005 (ip), vehicle: Klucel + Tween-80 100 % of control | dose: 120.0 mg/kg/injection, schedule: Q01DX005 (ip), vehicle: Klucel + Tween-80 88 % of control | dose: 240.0 mg/kg/injection, schedule: Q01DX005 (ip), vehicle: Klucel + Tween-80 88 % of control

CC(=O)OCC12C=CC(O1)C1C(=O)OC(=O)C12 (stereo unspecified)
inactive: [18] 94 % of control | [19] 88 % of control

CC(=O)c1c(O)cc2c3c1OC(C)(C)C1CCC(C)(CC31)O2 (stereo unspecified)
inactive: dose: 6.25 mg/kg/injection, schedule: Q01DX009 (ip), vehicle: saline 105 % of control | [20] 105 % of control | [21] 104 % of control | [16] 89 % of control | [17] 93 % of control

CCOC(CN(C)C)C(Cl)(Cl)Cl (stereo unspecified)
inactive: dose: 25.0 mg/kg/injection, schedule: Q01DX009 (ip), vehicle: Klucel (hydroxypropylcellulose) (HPC) 103 % of control | [7] 103 % of control | [8] 88 % of control | [9] 108 % of control

COc1ccc2c(Br)c(NC(C)=O)ccc2c1Br
inactive: dose: 25.0 mg/kg/injection, schedule: Q04DX003 (ip), vehicle: saline 100 % of control | dose: 50.0 mg/kg/injection, schedule: Q04DX003 (ip), vehicle: saline 96 % of control | dose: 100.0 mg/kg/injection, schedule: Q04DX003 (ip), vehicle: saline 98 % of control and 96 % of control | dose: 400.0 mg/kg/injection, schedule: Q04DX003 (ip), vehicle: saline 95 % of control

C=COC(=O)C(Cc1ccc(F)cc1)NC(=O)OCc1ccccc1 (stereo unspecified)
inactive: [22] 103 % of control | [23] 97 % of control | [24] 97 % of control

CN(CN(C)N=Nc1ccc(Cl)cc1)CN(C)N=Nc1ccc(Cl)cc1
inactive: [4] 104 % of control | [5] 110 % of control | [6] 110 % of control

CS(=O)c1c(C(=O)O)cc(C(C)(C)C)cc1C(=O)O (stereo unspecified)
inactive: [22] 105 % of control | [23] 107 % of control | [24] 96 % of control

CCOC(=O)Nc1cc(NC/C(CN(C)c2ccc(OC)cc2)=N/O)c([N+](=O)[O-])c(N)n1
inactive: [18] 86 % of control | [19] 86 % of control

CN(C)c1nc(NO)nc(N(C)C)n1
inactive: [15] 103 % of control | [10] 107 % of control | [11] 112 % of control

CCN(CC)C(=NC(C)C)c1ccccc1
inactive: [20] 98 % of control | [21] 94 % of control

CCOC(=O)C1=C(C)NC(=O)NC1c1ccc([N+](=O)[O-])s1 (stereo unspecified)
inactive: [12] 87 % of control | [13] 97 % of control | [14] 91 % of control

COc1ccc(C(C)(C)c2cc3c(cc2OCCO)OCO3)cc1
inactive: [1] 96 % of control | [2] 101 % of control | [3] 105 % of control
